# Experimental data: US12479825B2, “Melanocortin subtype-2 receptor (MC2R) antagonists and uses thereof” (Crinetics Pharmaceuticals, Inc., priority 2019, dated 2025)
# Target: T1, hMC2 receptor (Homo sapiens, UniProt Q01718)
# T1 construct: host or cells: CRE-bla-CHO-K1 cells, crude membrane fraction
# Test: hMC2 membrane binding assay ([125I]ACTH (1-39) Tyr23, SPA)
# Settings: crude hMC2R membranes from CRE-bla-CHO-K1 cells expressing hMC2 receptor and hMRAP; 0.2 nM [125I]ACTH (1-39) Tyr23; 1.5 hours at room temperature; read-out: MC2R binding potency
# Procedure: Crude membrane fractions are prepared from CRE-bla-CHO-K1 cells stably expressing hMC2 receptor and hMRAP accessory protein (Thermo Fisher). The cells are grown to 85-100% confluence on standard tissue culture dishes in GlutaMax DMEM growth media (Gibco) with following additives: 10% dialyzed FBS (Gemini), 0.1 mM NEAA (Gibco), 25 mM HEPES (Gibco), 5 μg/mL blasticidin (Goldbio), 100 μg/mL zeocin (Invitrogen), 600 μg/mL hygromycin (Goldbio). To prepare membranes, cells are scraped and collected in 1× Dulbecco's phosphate buffered saline (Corning) and then pelleted at 1000 RPM's. The cell pellet is reconstituted in membrane preparation buffer (20 mM HEPES, 6 mM MgCl2 and 1 mM EGTA, protease inhibitor tablets (Pierce) adjusted to pH 7.4), homogenized using a dounce homogenizer, and the resulting membrane fraction is pelleted by centrifugation at 12,000 RPM's. The membrane pellet is resuspended in membrane preparation buffer, snap freezed and stored at −80° C. for later use.
# The hMC2 membrane binding assay utilizes the following components: radiolabel [^125I]ACTH (1-39) Tyr23 (PerkinElmer), wheat germ agglutinin coated PVT SPA beads (PerkinElmer), crude hMC2R membranes, and compounds. Briefly hMC2R membranes are incubated with SPA beads in binding assay buffer (50 mM HEPES, 5 mM MgCl2, 1 mM CaCl2, 0.2% BSA, protease inhibitor tablets (Pierce) adjusted to pH7.4) prior to assay initiation. A dose response of compound (the final concentration of compound is typically 0-10,000 nM), SPA membranes, and [^125I]ACTH (1-39) Tyr23 at a final concentration of 0.2 nM is plated in a 96-well assay plate and allowed to incubate 1.5 hours at room temperature. Assay plates are read using a Top Count NXT and Ki values for compounds are determined using a GraphPad Prism 6 non-linear regression analysis.
# T1 sequence (Q01718 whole entry): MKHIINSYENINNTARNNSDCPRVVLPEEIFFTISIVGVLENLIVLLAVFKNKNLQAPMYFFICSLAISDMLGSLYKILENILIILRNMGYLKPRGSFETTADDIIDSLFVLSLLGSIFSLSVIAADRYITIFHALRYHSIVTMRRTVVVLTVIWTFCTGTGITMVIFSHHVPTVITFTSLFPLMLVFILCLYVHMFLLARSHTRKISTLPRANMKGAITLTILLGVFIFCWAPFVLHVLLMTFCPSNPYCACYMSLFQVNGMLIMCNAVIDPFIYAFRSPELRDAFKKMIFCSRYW
# T1 sequence (Q8TCY5 whole entry partner): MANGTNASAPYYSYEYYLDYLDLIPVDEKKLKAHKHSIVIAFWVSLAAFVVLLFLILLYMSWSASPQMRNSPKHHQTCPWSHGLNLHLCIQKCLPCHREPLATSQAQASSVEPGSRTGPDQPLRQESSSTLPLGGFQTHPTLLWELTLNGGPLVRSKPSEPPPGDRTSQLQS
row,Compound,Ki [nM]
1,"CCOc1ncccc1-c1ccc(N2CC[C@@H](Oc3ccc(Cl)nc3C(F)(F)F)C[C@H]2C2CC2)c(C(=O)N[C@@H]2CCN(C)C2)n1 (racemic) [2-8, 5-[cis*-4-{[6-chloro-2-(trifluoromethyl)pyridin-3-yl]oxy}-2-cyclopropylpiperidin-1-yl]-2′-ethoxy-N-[(3R)-1-methylpyrrolidin-3-yl]-[2,3′-bipyridine]-6-carboxamide]",< 10
2,"CCOc1ccccc1-c1ccc(N2CC[C@H](Oc3ccc(Cl)cc3C#N)C[C@@H]2C)c(C(=O)N[C@@H]2CCN(C)C2)n1 (mixture of isomers) [2-24, 3-[cis-4-(4-chloro-2-cyanophenoxy)-2-methylpiperidin-1-yl]-6-(2-ethoxyphenyl)-N-[(3R)-1-methylpyrrolidin-3-yl]pyridine-2-carboxamide]",< 10
3,"5-{cis-4-[4-chloro-2-(difluoromethyl)phenoxy]-2-cyclopropylpiperidin-1-yl}-2′-ethoxy-N-[(3R)-1-methylpyrrolidin-3-yl]-[2,3′-bipyridine]-6-carboxamide [2-7]",< 10
4,"CCOc1ncccc1-c1ccc(N2CC[C@H](Sc3ccccc3C(F)(F)F)C[C@H]2CC)c(C(=O)N[C@@H]2CCN(C)C2)n1 (racemic) [5-1, rac-2′-ethoxy-5-[(2R,4S)-2-ethyl-4-{[2-(trifluoromethyl)phenyl]sulfanyl}piperidin-1-yl]-N-[(3R)-1-methylpyrrolidin-3-yl]-[2,3′-bipyridine]-6-carboxamide]",< 10
5,"CCOc1ncccc1-c1ccc(N2CC[C@@H](Oc3ccc(C(F)(F)F)cc3C#N)C[C@H]2C2CC2)c(C(=O)N[C@@H]2CCNC2)n1 (racemic) [2-5, 5-[cis*4-[2-cyano-4-(trifluoromethyl)phenoxy]-2-cyclopropylpiperidin-1-yl]-2′-ethoxy-N-[(3R)-pyrrolidin-3-yl]-[2,3′-bipyridine]-6-carboxamide]",< 10
6,"CCOc1ccc(O[C@@H]2CCN(c3ccc(-c4cccnc4OCC)nc3C(=O)N[C@@H]3CCN(C)C3)[C@H](C3CC3)C2)c(C(F)(F)F)n1 (racemic) [2-13, 5-[cis*-2-cyclopropyl-4-{[6-ethoxy-2-(trifluoromethyl)pyridin-3-yl]oxy}piperidin-1-yl]-2′-ethoxy-N-[(3R)-1-methylpyrrolidin-3-yl]-[2,3′-bipyridine]-6-carboxamide]",< 10
7,"CCOc1ncccc1-c1ccc(C2CCN(c3ccc(C(F)(F)F)cc3C#N)CC2)c(OCCNC)n1 [3-1, 2-(4-(2′-ethoxy-6-(2-(methylamino)ethoxy)-[2,3′-bipyridin]-5-yl)piperidin-1-yl)-5-(trifluoromethyl)benzonitrile]",< 10
8,"CCOc1ncccc1-c1ccc(N2CC[C@H](Oc3ccc(C(F)(F)F)cc3C#N)C[C@H]2C2CC2)c(C(=O)N[C@@H]2CCN(C)C2)n1 (racemic) [2-4, 5-[trans*4-[2-cyano-4-(trifluoromethyl)phenoxy]-2-cyclopropylpiperidin-1-yl]-2′-ethoxy-N-[(3R)-1-methylpyrrolidin-3-yl]-[2,3′-bipyridine]-6-carboxamide]",< 10
9,"CCOc1ncccc1-c1ccc(N2CC[C@H](Oc3ccc(C(F)(F)F)nc3C#N)C[C@@H]2CC)c(C(=O)N[C@@H]2CCN(C)C2)n1 (mixture of isomers) [2-15, 5-(cis-4-{[2-cyano-6-(trifluoromethyl)pyridin-3-yl]oxy}-2-ethylpiperidin-1-yl)-2′-ethoxy-N-[(3R)-1-methylpyrrolidin-3-yl]-[2,3′-bipyridine]-6-carboxamide]",< 10
10,"CCOc1ncccc1-c1ccc(N2CC[C@H](Oc3ccc(C(F)(F)F)cc3C#N)C[C@H]2C2CC2)c(C(=O)N[C@@H]2CCNC2)n1 (racemic) [2-3, 5-[trans*4-[2-cyano-4-(trifluoromethyl)phenoxy]-2-cyclopropylpiperidin-1-yl]-2′-ethoxy-N-[(3R)-pyrrolidin-3-yl]-[2,3′-bipyridine]-6-carboxamide]",10 to 100
11,"CCOc1ncccc1-c1ccc(N2CC[C@@H](Oc3ccc(C(F)(F)F)nc3C#N)C[C@H]2CC)c(C(=O)N[C@H]2CCN(C)C2)n1 (single isomer, unassigned) [2-22]",< 10
12,"CCOc1ncccc1-c1ccc(N2CC[C@H](Oc3ccc(F)cc3C#N)C[C@@H]2C2CC2)c(C(=O)N[C@@H]2CCN(C)C2)n1 (mixture of isomers) [2-25, 5-[cis-4-(2-cyano-4-fluorophenoxy)-2-cyclopropylpiperidin-1-yl]-2′-ethoxy-N-[(3R)-1-methylpyrrolidin-3-yl]-[2,3′-bipyridine]-6-carboxamide]",< 10

# Results, then the compound that gave them:
row,Ki [nM],Compound
1,< 10,"CCOc1ncccc1-c1ccc(N2CC[C@H](Oc3ccc(C)cc3C#N)C[C@@H]2CC)c(C(=O)N[C@@H]2CCN(C)C2)n1 (mixture of isomers) [2-17, 5-[cis-4-(2-cyano-4-methylphenoxy)-2-ethylpiperidin-1-yl]-2′-ethoxy-N-[(3R)-1-methylpyrrolidin-3-yl]-[2,3′-bipyridine]-6-carboxamide]"
2,< 10,"CCOc1ncccc1-c1ccc(N2CC[C@@H](Oc3ccc(C(F)(F)F)cc3C#N)C[C@H]2CC)c(C(=O)N[C@@H]2CCN(C)C2)n1 (single isomer, unassigned) [2-11]"
3,10 to 100,"CCOc1ncccc1-c1ccc(N2CC[C@H](Oc3ccc(Cl)cc3C(F)(F)F)C[C@@H]2CC)c(C(=O)N[C@@H]2CCN(C)C2)n1 (single isomer, unassigned) [2-10, 5-[(2S,4S)*-4-[4-chloro-2-(trifluoromethyl)phenoxy]-2-ethylpiperidin-1-yl]-2′-ethoxy-N-[(3R)-1-methylpyrrolidin-3-yl]-[2,3′-bipyridine]-6-carboxamide]"
4,10 to 100,"CCOc1ncccc1-c1ccc(N2CC[C@@H](Oc3ccc(C(F)(F)F)cc3C#N)C[C@H]2CC)c(O[C@@H]2CCN(C)C2)n1 (mixture of isomers) [3-8, 2-{[rac-(2R,4R)-1-(2′-ethoxy-6-{[(3R)-1-methylpyrrolidin-3-yl]oxy}-[2,3′-bipyridin]-5-yl)-2-ethylpiperidin-4-yl]oxy}-5-(trifluoromethyl)benzonitrile]"
5,< 10,"CCOc1ncccc1-c1ccc(N2CCN(C(=O)c3ccc(Cl)cc3C(F)(F)F)C[C@H]2CC)c(OCCN)n1 [1-16, 2-({5-[(2R)-4-[4-chloro-2-(trifluoromethyl)benzoyl]-2-ethylpiperazin-1-yl]-2′-ethoxy-[2,3′-bipyridin]-6-yl}oxy)ethan-1-amine]"
6,< 10,"CCOc1ncccc1-c1ccc(N2CCN(C(=O)c3ccc(Cl)cc3C(F)(F)F)C[C@H]2CC)c(OCCNC)n1 [1-15, [2-({5-[(2R)-4-[4-chloro-2-(trifluoromethyl)benzoyl]-2-ethylpiperazin-1-yl]-2′-ethoxy-[2,3′-bipyridin]-6-yl}oxy)ethyl](methyl)amine]"
7,< 10,"CCOc1ncccc1-c1ccc(N2CC[C@@H](Oc3ccc(Cl)cc3C(F)(F)F)C[C@H]2CC)c(C(=O)N[C@@H]2CCN(C)C2)n1 (single isomer, unassigned) [2-9, 5-[(2R,4R)*-4-[4-chloro-2-(trifluoromethyl)phenoxy]-2-ethylpiperidin-1-yl]-2′-ethoxy-N-[(3R)-1-methylpyrrolidin-3-yl]-[2,3′-bipyridine]-6-carboxamide]"
8,100 to 1000,"CCOc1ncccc1-c1ccc(N2CCN(C(=O)c3ccc(F)cc3Cl)C[C@H]2CC)c(-c2nnc(N)[nH]2)n1 [4-3, (R)-(4-(6-(5-amino-4H-1,2,4-triazol-3-yl)-2′-ethoxy-[2,3′-bipyridin]-5-yl)-3-ethylpiperazin-1-yl)(2-chloro-4-fluorophenyl)methanone]"
9,< 10,"CCOc1ncccc1-c1ccc(N2CC[C@@H](Oc3ccc(C(F)(F)F)cc3C#N)C[C@H]2CC)c(C(=O)N[C@@H]2CCN(C)C2)n1 (racemic) [2-2, 5-[(cis*-4-[2-cyano-4-(trifluoromethyl)phenoxy]-2-ethylpiperidin-1-yl]-2′-ethoxy-N-[(3R)-1-methylpyrrolidin-3-yl]-[2,3′-bipyridine]-6-carboxamide]"
10,< 10,"CCOc1ncccc1-c1ccc(N2CC[C@@H](Oc3ccc(C(F)(F)F)nc3C#N)C[C@H]2CC)c(C(=O)N[C@@H]2CCN(C)C2)n1 (single isomer, unassigned) [2-18]"
11,< 10,"CCOc1ncccc1-c1ccc(N2CCN(C(=O)N3CCc4cc(Cl)cc(C#N)c43)C[C@H]2CC)c(OCCN)n1 [1-25, 1-[(3R)-4-[6-(2-aminoethoxy)-2′-ethoxy-[2,3′-bipyridin]-5-yl]-3-ethylpiperazine-1-carbonyl]-5-chloro-2,3-dihydro-1H-indole-7-carbonitrile]"
12,< 10,"CCOc1ncccc1-c1ccc(N2CCN(C(=O)c3ccc(F)cc3C(F)F)C[C@H]2CC)c(O[C@@H]2CCNC2)n1 [1-6, 5-[(2R)-4-[2-(difluoromethyl)-4-fluorobenzoyl]-2-ethylpiperazin-1-yl]-2′-ethoxy-6-[(3R)-pyrrolidin-3-yloxy]-2,3′-bipyridine]"
